Laboratory results taken from the supplement of paper PMC10307832.

Columns and labels:
Experiment in all cases: relative viability (nuclei count vs DMSO), 5 days (fraction); higher = more cells survive
NCI-H596 = tested on: NCI-H596
Summary of the method: (§1)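 Medians of duplicate plates are given as relative viability. That measure is the nuclei count in treated wells divided by the count in vehicle wells. Counts were taken on 4× images of lung cancer cell lines in 1536-well plates, 5 days after pin-tool dosing the day after seeding with one drug alone or a fixed anchor-drug dose plus five library-drug doses (not always all listed) in √10 steps.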

NCI-H661 = tested on: NCI-H661
Summary of the method: as §1

NCI-H727 = tested on: NCI-H727
Summary of the method: as §1

NCI-H2342 = tested on: NCI-H2342
Summary of the method: as §1

ChaGo-K-1 = tested on: ChaGo-K-1
Summary of the method: as §1

CAL-12T = tested on: CAL-12T
Summary of the method: as §1

NCI-H1355 = tested on: NCI-H1355
Summary of the method: as §1

SW 1573 = tested on: SW 1573
Summary of the method: as §1

NCI-H460 = tested on: NCI-H460
Summary of the method: as §1

PC-3 [JPC-3] = tested on: PC-3 [JPC-3]
Summary of the method: as §1

NCI-H23 = tested on: NCI-H23
Summary of the method: as §1

NCI-H2009 = tested on: NCI-H2009
Summary of the method: as §1

NCI-H2126 = tested on: NCI-H2126
Summary of the method: as §1

ABC-1 = tested on: ABC-1
Summary of the method: as §1

COR-L23 = tested on: COR-L23
Summary of the method: as §1

201T = tested on: 201T
Summary of the method: as §1

HOP-62 = tested on: HOP-62
Summary of the method: as §1

NCI-H1666 = tested on: NCI-H1666
Summary of the method: as §1

NCI-H1651 = tested on: NCI-H1651
Summary of the method: as §1

LC-2-ad = tested on: LC-2-ad
Summary of the method: as §1

NCI-H322M = tested on: NCI-H322M
Summary of the method: as §1

NCI-H1944 = tested on: NCI-H1944
Summary of the method: as §1

NCI-H2087 = tested on: NCI-H2087
Summary of the method: as §1

C=C1C(=O)O[C@@H](CCCCCCCC)[C@@H]1C(=O)O [C-75] + O=C(CCCCCCC(=O)Nc1ccccc1)NO [Vorinostat] (partner 1 µM)
relative viability (NCI-H596; first compound 0.08 µM): 0.644 | relative viability (NCI-H596; first compound 0.253 µM): 0.642 | relative viability (NCI-H596; first compound 0.8 µM): 0.671 | relative viability (NCI-H596; first compound 2.53 µM): 0.516 | relative viability (NCI-H596; first compound 8 µM): 0.483 | relative viability (NCI-H661; first compound 0.08 µM): 0.762 | relative viability (NCI-H661; first compound 0.253 µM): 0.828 | relative viability (NCI-H661; first compound 0.8 µM): 0.741 | relative viability (NCI-H661; first compound 2.53 µM): 0.657 | relative viability (NCI-H661; first compound 8 µM): 0.774 | relative viability (NCI-H727; first compound 0.08 µM): 1.22 | relative viability (NCI-H727; first compound 0.253 µM): 1.31 | relative viability (NCI-H727; first compound 0.8 µM): 0.973 | relative viability (NCI-H727; first compound 2.53 µM): 1.18 | relative viability (NCI-H727; first compound 8 µM): 1.23 | relative viability (NCI-H2342; first compound 0.08 µM): 0.695 | relative viability (NCI-H2342; first compound 0.253 µM): 0.728 | relative viability (NCI-H2342; first compound 0.8 µM): 0.71 | relative viability (NCI-H2342; first compound 2.53 µM): 0.727 | relative viability (NCI-H2342; first compound 8 µM): 0.736 | relative viability (ChaGo-K-1; first compound 0.08 µM): 0.759 | relative viability (ChaGo-K-1; first compound 0.253 µM): 0.772 | relative viability (ChaGo-K-1; first compound 0.8 µM): 0.701 | relative viability (ChaGo-K-1; first compound 2.53 µM): 0.609 | relative viability (ChaGo-K-1; first compound 8 µM): 0.668 | relative viability (CAL-12T; first compound 0.08 µM): 0.721 | relative viability (CAL-12T; first compound 0.253 µM): 1.12 | relative viability (CAL-12T; first compound 0.8 µM): 0.918 | relative viability (CAL-12T; first compound 2.53 µM): 0.674 | relative viability (CAL-12T; first compound 8 µM): 0.89 | relative viability (NCI-H1355; first compound 0.08 µM): 0.643 | relative viability (NCI-H1355; first compound 0.253 µM): 0.696 | relative viability (NCI-H1355; first compound 0.8 µM): 0.67 | relative viability (NCI-H1355; first compound 2.53 µM): 0.52 | relative viability (NCI-H1355; first compound 8 µM): 0.639 | relative viability (SW 1573; first compound 0.08 µM): 0.976 | relative viability (SW 1573; first compound 0.253 µM): 0.816 | relative viability (SW 1573; first compound 0.8 µM): 0.701 | relative viability (SW 1573; first compound 2.53 µM): 0.442 | relative viability (SW 1573; first compound 8 µM): 0.517 | relative viability (NCI-H460; first compound 0.08 µM): 0.698 | relative viability (NCI-H460; first compound 0.253 µM): 0.882 | relative viability (NCI-H460; first compound 0.8 µM): 0.688 | relative viability (NCI-H460; first compound 2.53 µM): 0.58 | relative viability (NCI-H460; first compound 8 µM): 0.674 | relative viability (PC-3 [JPC-3]; first compound 0.08 µM): 0.837 | relative viability (PC-3 [JPC-3]; first compound 0.253 µM): 0.819 | relative viability (PC-3 [JPC-3]; first compound 0.8 µM): 0.415 | relative viability (PC-3 [JPC-3]; first compound 2.53 µM): 0.583 | relative viability (PC-3 [JPC-3]; first compound 8 µM): 0.764 | relative viability (NCI-H23; first compound 0.08 µM): 0.605 | relative viability (NCI-H23; first compound 0.253 µM): 0.642 | relative viability (NCI-H23; first compound 0.8 µM): 0.497 | relative viability (NCI-H23; first compound 2.53 µM): 0.366 | relative viability (NCI-H23; first compound 8 µM): 0.407 | relative viability (NCI-H2009; first compound 0.08 µM): 0.764 | relative viability (NCI-H2009; first compound 0.253 µM): 0.668 | relative viability (NCI-H2009; first compound 0.8 µM): 0.469 | relative viability (NCI-H2009; first compound 2.53 µM): 0.783 | relative viability (NCI-H2009; first compound 8 µM): 0.715 | relative viability (NCI-H2126; first compound 0.08 µM): 0.721 | relative viability (NCI-H2126; first compound 0.253 µM): 0.92 | relative viability (NCI-H2126; first compound 0.8 µM): 0.792 | relative viability (NCI-H2126; first compound 2.53 µM): 0.642 | relative viability (NCI-H2126; first compound 8 µM): 0.744 | relative viability (ABC-1; first compound 0.08 µM): 1.32 | relative viability (ABC-1; first compound 0.253 µM): 1.18 | relative viability (ABC-1; first compound 0.8 µM): 0.547 | relative viability (ABC-1; first compound 2.53 µM): 0.805 | relative viability (ABC-1; first compound 8 µM): 0.649 | relative viability (COR-L23; first compound 0.08 µM): 0.507 | relative viability (COR-L23; first compound 0.253 µM): 0.408 | relative viability (COR-L23; first compound 0.8 µM): 0.446 | relative viability (COR-L23; first compound 2.53 µM): 0.37 | relative viability (COR-L23; first compound 8 µM): 0.327 | relative viability (201T; first compound 0.08 µM): 0.976 | relative viability (201T; first compound 0.253 µM): 1.31 | relative viability (201T; first compound 0.8 µM): 0.91 | relative viability (201T; first compound 2.53 µM): 0.936 | relative viability (201T; first compound 8 µM): 0.979 | relative viability (HOP-62; first compound 0.08 µM): 0.563 | relative viability (HOP-62; first compound 0.253 µM): 0.834 | relative viability (HOP-62; first compound 0.8 µM): 0.629 | relative viability (HOP-62; first compound 2.53 µM): 0.478 | relative viability (HOP-62; first compound 8 µM): 0.449 | relative viability (NCI-H1666; first compound 0.08 µM): 1.05 | relative viability (NCI-H1666; first compound 0.253 µM): 1.3 | relative viability (NCI-H1666; first compound 0.8 µM): 0.895 | relative viability (NCI-H1666; first compound 8 µM): 0.913 | relative viability (NCI-H1651; first compound 0.08 µM): 0.55 | relative viability (NCI-H1651; first compound 0.253 µM): 0.58 | relative viability (NCI-H1651; first compound 0.8 µM): 0.525 | relative viability (NCI-H1651; first compound 2.53 µM): 0.522 | relative viability (NCI-H1651; first compound 8 µM): 0.509 | relative viability (LC-2-ad; first compound 0.08 µM): 0.72 | relative viability (LC-2-ad; first compound 0.253 µM): 0.717 | relative viability (LC-2-ad; first compound 0.8 µM): 0.681 | relative viability (LC-2-ad; first compound 2.53 µM): 0.689 | relative viability (LC-2-ad; first compound 8 µM): 0.666 | relative viability (NCI-H322M; first compound 0.08 µM): 0.859 | relative viability (NCI-H322M; first compound 0.253 µM): 1.32 | relative viability (NCI-H322M; first compound 0.8 µM): 0.851 | relative viability (NCI-H322M; first compound 8 µM): 0.847 | relative viability (NCI-H1944; first compound 0.08 µM): 0.571 | relative viability (NCI-H1944; first compound 0.253 µM): 0.591 | relative viability (NCI-H1944; first compound 0.8 µM): 0.475 | relative viability (NCI-H1944; first compound 2.53 µM): 0.42 | relative viability (NCI-H1944; first compound 8 µM): 0.483 | relative viability (NCI-H2087; first compound 0.08 µM): 0.683 | relative viability (NCI-H2087; first compound 0.253 µM): 0.586 | relative viability (NCI-H2087; first compound 0.8 µM): 0.666 | relative viability (NCI-H2087; first compound 2.53 µM): 0.635 | relative viability (NCI-H2087; first compound 8 µM): 0.541
